Laboratory results published in BindingDB's records for PubMed 8102785 (University of Pennsylvania, 1993).
*1 amine or outer side, *2 acyl side, *3 side chain or, on linkers, in order; H or OH if unused. Where a SMILES comes first, the peptide text is derived from it. Bridges are numbered along the chain shown (N, C = ends). [ ]: non-standard residue; d: D form. The star is where a group is joined. ξ: configuration not given here. Phe(4-NO2) = N[C@@H](Cc1ccc([N+](=O)[O-])cc1)C(=O)O; X3 = C[C@@H](C(=O)[*:2])N(Cc1ccc2ccccc2c1)[*:1]; NH(1-naphthylmethyl) = c1ccc2c(CN*)cccc2c1; Phe(4-Cl) = N[C@@H](Cc1ccc(Cl)cc1)C(=O)O; dPhe(4-Cl) = N[C@H](Cc1ccc(Cl)cc1)C(=O)O; 1Nal = N[CH](Cc1cccc2ccccc12)C(=O)O; 2Nal = N[C@@H](Cc1ccc2ccccc2c1)C(=O)O; d2Nal = N[C@H](Cc1ccc2ccccc2c1)C(=O)O; dNMeF = CN[C@H](Cc1ccccc1)C(=O)O; X1 = O=C(C(N[*:1])S[*:3])[*:2]; Thr(3ξ) = CC(O)[C@H](N)C(=O)O; Thr(ol) = C[CH](O)[CH](N)CO; NMeA = CN[C@@H](C)C(=O)O; dNMeA = CN[C@H](C)C(=O)O; Abu = CC[C@H](N)C(=O)O; Ahp = NCCCCCCC(=O)O; Bn = c1ccc(C*)cc1; Mpa = O=C(O)CCS

Molecular target: Somatostatin receptor type 4 (Rattus norvegicus, UniProt P30937)
Sequence (P30937 whole entry): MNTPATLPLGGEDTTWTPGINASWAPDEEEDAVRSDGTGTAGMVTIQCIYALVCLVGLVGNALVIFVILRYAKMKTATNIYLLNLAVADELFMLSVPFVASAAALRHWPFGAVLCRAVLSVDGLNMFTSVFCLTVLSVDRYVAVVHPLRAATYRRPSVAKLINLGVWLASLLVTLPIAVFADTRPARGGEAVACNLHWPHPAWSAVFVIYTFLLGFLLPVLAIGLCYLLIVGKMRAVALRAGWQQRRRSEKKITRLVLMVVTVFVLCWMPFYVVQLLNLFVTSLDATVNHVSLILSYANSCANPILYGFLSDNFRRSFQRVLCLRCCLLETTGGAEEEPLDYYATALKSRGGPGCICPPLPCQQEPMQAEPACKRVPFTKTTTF

Row | SMILES | Ki
1 | CC(C)[C@H](NC(=O)[C@H](CCCCN)NC(=O)[C@@H](Cc1c[nH]c2ccccc12)NC(=O)[C@H](Cc1ccc(O)cc1)NC(=O)[C@H](Cc1ccc(Cl)cc1)NC(=O)[C@@H](N)Cc1ccccc1)C(=O)N[C@@H](Cc1ccccc1)C(=O)N[C@@H](Cc1ccc2ccccc2c1)C(N)=O [BIM 23063] (H-F[Phe(4-Cl)]Y[dW]KVF[2Nal]-NH2) | 43 nM
2 | CC(C)[C@H](NC(=O)[C@H](CCCCN)NC(=O)[C@@H](Cc1c[nH]c2ccccc12)NC(=O)[C@H](Cc1ccc(O)cc1)NC(=O)[C@H](Cc1ccc(Cl)cc1)NC(=O)[C@@H](N)Cc1ccccc1)C(=O)N[C@@H](Cc1ccccc1)C(=O)N[C@H](C)C(N)=O [BIM 23064] (H-F[Phe(4-Cl)]Y[dW]KVF[dA]-NH2) | 17 nM
3 | CC(C)[C@H](NC(=O)[C@H](CCCCN)NC(=O)[C@@H](Cc1c[nH]c2ccccc12)NC(=O)[C@H](Cc1ccc(O)cc1)NC(=O)[C@H](Cc1ccc([N+](=O)[O-])cc1)NC(=O)[C@H](N)Cc1ccccc1)C(=O)N[C@@H](Cc1ccccc1)C(=O)N[C@H](C(N)=O)[C@@H](C)O [BIM 23066] (H-[dF][Phe(4-NO2)]Y[dW]KVFT-NH2) | 2.4 nM
4 | CC[C@H](NC(=O)[C@@H](N)Cc1ccc(Cl)cc1)C(=O)N[C@@H](Cc1ccc(O)cc1)C(=O)N[C@H](Cc1c[nH]c2ccccc12)C(=O)N[C@@H](CCCCN)C(=O)N[C@H](C(=O)N[C@@H](C)C(=O)N[C@H](Cc1ccccc1)C(N)=O)C(C)C [BIM 23067] (H-[Phe(4-Cl)][Abu]Y[dW]KVA[dF]-NH2) | 15 nM
5 | C[C@@H](O)[C@H](NC(=O)[C@H](Cc1ccccc1)NC(=O)[C@@H](NC(=O)[C@H](CCCCN)NC(=O)[C@@H](Cc1c[nH]c2ccccc12)NC(=O)[C@H](Cc1ccc(O)cc1)NC(=O)[C@H](Cc1ccc(Cl)cc1)NC(=O)[C@H](N)Cc1ccccc1)[C@@H](C)O)C(N)=O [BIM 23068] (H-[dF][Phe(4-Cl)]Y[dW]KTFT-NH2) | 1.1 nM
6 | C[C@@H](O)[C@H](NC(=O)[C@H](Cc1ccccc1)NC(=O)[C@@H](NC(=O)[C@H](CCCCN)NC(=O)[C@@H](Cc1c[nH]c2ccccc12)NC(=O)[C@H](Cc1ccc(O)cc1)NC(=O)[C@H](Cc1ccc(Cl)cc1)NC(=O)[C@H](N)Cc1ccc2ccccc2c1)[C@@H](C)O)C(N)=O [CAS_150155-63-8] (H-[d2Nal][Phe(4-Cl)]Y[dW]KTFT-NH2) | 9.5 nM
7 | CC(C)[C@H](NC(=O)[C@H](CCCCN)NC(=O)[C@@H](Cc1c[nH]c2ccccc12)NC(=O)[C@H](Cc1ccc(O)cc1)NC(=O)[C@H](C)NC(=O)[C@H](N)Cc1ccc(Cl)cc1)C(=O)N[C@@H](C)C(=O)N[C@@H](Cc1ccc2ccccc2c1)C(N)=O [CAS_150155-67-2] (H-[dPhe(4-Cl)]AY[dW]KVA[2Nal]-NH2) | 14 nM
8 | CC(C)C1NC(=O)C(CCCCN)NC(=O)C(Cc2c[nH]c3ccccc23)NC(=O)C(Cc2ccc(O)cc2)NC(=O)C(C)N(C)C(=O)C(Cc2ccccc2)NC1=O (centres undefined) [CAS_3086456] | 5.5 nM
9 | CC(C)[C@H](NC(=O)[C@H](CCCCN)NC(=O)[C@@H](Cc1c[nH]c2ccccc12)NC(=O)[C@H](Cc1ccc(O)cc1)NC(=O)[C@H](C)NCc1ccc2ccccc2c1)C(=O)N[C@@H](C)C(=O)N[C@H](C(N)=O)[C@@H](C)O [D-Nal-Ala-Tyr-D-Trp-Lys-Val-Ala-Thr-NH2] (H-[X3]Y[dW]KVAT-NH2) | 146 nM
10 | CC(C)[C@H](NC(=O)[C@H](CCCCN)NC(=O)[C@@H](Cc1c[nH]c2ccccc12)NC(=O)[C@H](Cc1ccc(O)cc1)NC(=O)[C@H](C)NC(=O)[C@H](N)Cc1ccccc1)C(=O)N[C@@H](C)C(=O)N[C@H](Cc1ccc2ccccc2c1)C(N)=O [D-Phe-AIa-Tyr-D-Trp-Lys-Val-Ala-D-Nal-NH2] (H-[dF]AY[dW]KVA[d2Nal]-NH2) | 5.9 nM
11 | CC(C)[C@H](NC(=O)[C@H](CCCCN)NC(=O)[C@@H](Cc1c[nH]c2ccccc12)NC(=O)[C@H](Cc1ccc(O)cc1)NC(=O)[C@H](Cc1ccccc1)NC(=O)[C@H](N)Cc1ccccc1)C(=O)N[C@@H](Cc1ccccc1)C(=O)N[C@H](Cc1ccccc1)C(N)=O [D-Phe-Phe-Tyr-D-Trp-Lys-Val-Phe-D-Phe-NH2] (H-[dF]FY[dW]KVF[dF]-NH2) | 3.3 nM
12 | CC(C)[C@H](NC(=O)[C@H](CCCCN)NC(=O)[C@@H](Cc1c[nH]c2ccccc12)NC(=O)[C@H](Cc1ccc(O)cc1)NC(=O)[C@H](C)NC(=O)[C@H](N)Cc1ccccc1)C(=O)N[C@@H](C)C(=O)N[C@@H](Cc1ccc2ccccc2c1)C(N)=O [L-Alaninamide,D-phenylalanyl-L-alanyl-L-tyrosyl-D-tryptophyl-L-lysyl-L-valyl-L-alanyl-3-(2-naphthalenyl)-(9CI)] (H-[dF]AY[dW]KVA[2Nal]-NH2) | 29 nM
13 | CC(O)[C@@H]1NC(=O)[C@@H](CCCCN)NC(=O)[C@H](Cc2c[nH]c3ccccc23)NC(=O)[C@@H](Cc2ccccc2)NC(=O)[C@H](Cc2ccccc2)NC(=O)[C@@H](CC(N)=O)NC(=O)[C@H](CCCCN)NC(=O)[C@@H](NC(=O)CNC(=O)[C@H](C)N)CSSC[C@H](C(=O)O)NC(=O)[C@@H](CO)NC(=O)[C@H]([C@@H](C)O)NC(=O)[C@@H](Cc2ccccc2)NC1=O (stereo partly drawn) [SRIF-D-Trp8] | 0.002 nM

Continued, values first:

Row | Ki | SMILES
14 | 10 nM | CC(O)[C@H](NC(=O)[C@H](CCCCN)NC(=O)[C@@H](Cc1c[nH]c2ccccc12)NC(=O)[C@H](Cc1ccc(O)cc1)NC(=O)[C@@H](C)NC(=O)[C@@H](N)Cc1ccccc1)C(=O)N[C@@H](C)C(=O)N[C@@H](Cc1cccc2ccccc12)C(N)=O (some centres undefined) [BIM 23070] (H-F[dA]Y[dW]K[Thr(3ξ)]A[1Nal]-NH2)
15 | 6.2 nM | CC[C@@H]1NC(=O)[C@H](CCCCN)NC(=O)[C@@H](Cc2c[nH]c3ccccc23)NC(=O)[C@H](Cc2ccc(O)cc2)NC(=O)[C@H](C)N(C)C(=O)[C@H](Cc2ccccc2)NC1=O [BIM-23027] (cyclo([Abu]F[NMeA]Y[dW]K))
16 | 1.2 nM | CC(C)[C@H](NC(=O)[C@H](CCCCN)NC(=O)[C@@H](Cc1c[nH]c2ccccc12)NC(=O)[C@H](Cc1ccc(O)cc1)NC(=O)[C@H](Cc1ccccc1)NC(=O)[C@@H](N)Cc1ccccc1)C(=O)N[C@@H](Cc1ccccc1)C(=O)N[C@H](C(N)=O)[C@@H](C)O [BIM-23058] (H-FFY[dW]KVFT-NH2)
17 | 3.9 nM | CC(C)[C@@H]1NC(=O)[C@H](CCCCN)NC(=O)[C@@H](Cc2c[nH]c3ccccc23)NC(=O)[C@H](Cc2ccc(O)cc2)NC(=O)CCSSC(C(=O)N[C@@H](Cc2ccccc2)C(N)=O)NC1=O (some centres undefined) [CAS_117580-24-2] ([Mpa]Y[dW]KV[X1]F-NH2; disulfide 1-6)
18 | 0.002 nM | C[C@@H](O)[C@H](NC(=O)[C@H](Cc1ccccc1)NC(=O)[C@@H](NC(=O)[C@H](CCCCN)NC(=O)[C@@H](Cc1c[nH]c2ccccc12)NC(=O)[C@H](Cc1ccccc1)NC(=O)[C@H](Cc1ccccc1)NC(=O)[C@H](N)Cc1ccccc1)[C@@H](C)O)C(N)=O [CAS_133073-82-2] (H-[dF]FF[dW]KTFT-NH2)
19 | 0.08 nM | C[C@@H](O)[C@H](NC(=O)[C@@H]1CSSC[C@H](NC(=O)[C@H](N)Cc2ccc3ccccc3c2)C(=O)N[C@@H](Cc2ccc(O)cc2)C(=O)N[C@H](Cc2c[nH]c3ccccc23)C(=O)N[C@@H](CCCCN)C(=O)N[C@@H]([C@@H](C)O)C(=O)N1)C(N)=O [D-Nal-c[Cys-Tyr-D-Trp-Lys-Thr-Cys]-Thr-NH2]
20 | 6 nM | CC[C@@H]1NC(=O)[C@H](CCCCN)NC(=O)[C@@H](Cc2c[nH]c3ccccc23)NC(=O)[C@H](Cc2ccc(O)cc2)NC(=O)[C@@H](NC(=O)[C@H](N)Cc2ccccc2)CSSC[C@@H](C(=O)N[C@@H](Cc2ccc3ccccc3c2)C(N)=O)NC1=O [D-Phe-Cys-Tyr-D-Trp-Lys-Abu-Cys-Nal-NH] (H-[dF]CY[dW]K[Abu]C[2Nal]-NH2; disulfide 2-7)
21 | 0.18 nM | CC[C@@H]1NC(=O)[C@H](CCCCN)NC(=O)[C@@H](Cc2c[nH]c3ccccc23)NC(=O)[C@H](Cc2ccc(O)cc2)NC(=O)[C@@H](NC(=O)[C@H](N)Cc2ccccc2)CSSC[C@@H](C(=O)N[C@H](C(N)=O)[C@@H](C)O)NC1=O [D-Phe-L-Cys(1)-L-Tyr-D-Trp-L-Lys-L-Abu-L-Cys(1)-L-Thr-NH2]
22 | 1.5 nM | CC(C)C1NC(=O)C(CCCCN)NC(=O)C(Cc2c[nH]c3ccccc23)NC(=O)C(Cc2ccc(O)cc2)NC(=O)C(NC(=O)C(N)Cc2cccc3ccccc23)CSSCC(C(=O)NC(CO)C(C)O)NC1=O (centres undefined) [DC23-60] (H-[1Nal]CYWKVC[Thr(ol)]; disulfide 2-7; configuration not given here)
23 | 0.005 nM | C[C@@H](O)[C@@H]1NC(=O)[C@H](CCCCN)NC(=O)[C@@H](Cc2c[nH]c3ccccc23)NC(=O)[C@H](Cc2c[nH]c3ccccc23)NC(=O)[C@H](Cc2ccccc2)NC(=O)CCCCCCNC(=O)[C@H](Cc2ccccc2)NC1=O [L-362855] (cyclo([Ahp]FW[dW]KTF))
24 | 0.47 nM | C[C@@H](O)[C@@H]1NC(=O)[C@H](CCCCN)NC(=O)[C@@H](Cc2c[nH]c3ccccc23)NC(=O)[C@H](Cc2ccccc2)NC(=O)[C@H](Cc2ccc(Cl)cc2)NC(=O)CCCCCCNC(=O)[C@H](Cc2ccccc2)NC1=O [L-362862] (cyclo([Ahp][Phe(4-Cl)]F[dW]KTF))
25 | 405 nM | C[C@H](O)[C@H]1NC(=O)[C@H](CCCCN)NC(=O)[C@@H](Cc2c[nH]c3ccccc23)NC(=O)[C@@H](Cc2ccccc2)NC(=O)[C@@H](C)N(C)C(=O)[C@@H](Cc2ccccc2)N(C)C1=O [N-Methylcyclo(D-Ala-D-Phe-D-Trp-L-Lys-D-Thr-N-methyl-D-Phe-)] (cyclo(K[dT][dNMeF][dNMeA][dF][dW]))
26 | 1 nM | NCCCCC1NC(=O)C(Cc2c[nH]c3ccccc23)NC(=O)C(Cc2ccc(O)cc2)NC(=O)C(NC(=O)C(N)Cc2ccccc2)CSSCC(C(=O)NCc2cccc3ccccc23)NC(=O)C(CO)NC1=O (centres undefined) [NC4-28B] (H-FCYWKSC-{NH(1-naphthylmethyl)}; disulfide 2-7; configuration not given here)
27 | 188 nM | NCCCC[C@@H]1NC(=O)[C@@H](Cc2c[nH]c3ccccc23)NC(=O)[C@H](Cc2ccccc2)NC(=O)CCCCCCNC(=O)[C@H](COCc2ccccc2)NC1=O [c[Aha-Phe-D-Trp-Lys-Ser(Bzl)]] (cyclo([Ahp]F[dW]KS(Bn)))
28 | 51 nM | C[C@@H](Oc1ccccc1)[C@@H]1NC(=O)[C@H](CCCCN)NC(=O)[C@@H](Cc2c[nH]c3ccccc23)NC(=O)[C@H](Cc2ccccc2)NCCCCCCNC1=O [c[Aha-Phe-D-Trp-Lys-Thr(Bzl)]]
29 | 1000 nM | C[C@@H](O)[C@@H]1NC(=O)[C@H](CCCCN)NC(=O)[C@@H](Cc2c[nH]c3ccccc23)NC(=O)[C@H](Cc2ccccc2)NC(=O)CCCCCCNC1=O [c[Aha-Phe-D-Trp-Lys-Thr]] (cyclo([Ahp]F[dW]KT))
